Measurements taken from patent publication US10493118B2, “Triterpenoid obtainable from hedera helix for treatment of neurodegenerative diseases” (Macau University of Science and Technology, priority 2016, dated 2019).

Tests used:
[1] = test system: GFP-LC3 transfected PC-12 cells; experiment: GFP-LC3 autophagic puncta formation by fluorescence microscopy; assay type: cell-based; details: for percentage of cells with GFP-LC3 puncta formation with addition of 3-MA: 60 μM hederagenin or 18 μM α-hederin with 5 mM 3-MA for 24 h; for formation of GFP-LC3 puncta with AMPK inhibitor compound C (CC): 60 μM hederagenin or 18 μM α-hederin with 5 mM CC for 24 h; for formation of fluorescent LC3 II puncta: PC-12 cells, hederagenin 20-80 μM, α-hederin 6-24 μM, 4-24 h
Description: Firstly, cells were plated on top of coverslips inside a 6-well culture dish. After compound treatment, cells were fixed with 4% paraformaldehyde for 20 min. FluorSave™ mounting media (Calbiochem, San Diego, Calif., USA) was used to mount the coverslips with cells before subjected to fluorescence microscopic analysis. The number of GFP-positive cells, and cells with GFP-LC3 puncta formation were examined and counted under the Nikon ECLIPSE 80i microscope by using 40× of magnification. In order to standardize the quantitation, the percentage of cells with autophagy induction was defined by counting the number of cells with increased punctate GFP-LC3 fluorescence in GFP-positive cells. A minimum of 1000 GFP-positive cells from 3 randomly selected fields were scored.

[2] = test system: EGFP-HTT 74 (mutant huntingtin); experiment: Mutant huntingtin (EGFP-HTT 74) clearance in transfected PC-12 cells, Western blot; assay type: cell-based; details: EGFP-HTT 74 transfected PC-12 cells; hederagenin 40-80 μM, α-hederin 12-24 μM
Excerpt: Protein extraction and Western blots: Cells were harvested by RIPA lysis buffer (Cell Signaling Technologies, Beverly, Mass., USA), and with the final protein concentrations measured by using Bradford reagent (Bio-Rad, Hercules, Calif., USA). After electrophoresis for protein band separation, proteins were transferred to the nitrocellulose membrane which was blocked with 5% non-fat dried milk immediately after protein transfer. Corresponding primary antibodies, followed by the addition of HRP-conjugated secondary antibodies, were incubated with the protein membrane with constant shaking. […] Band intensities were quantified by using the software, ImageJ (ImageJ 1.46r; National Institutes of Health, Bethesda, Md., USA).
Cells were then treated with either hederagenin or α-hederin for a further 24 h to determine the protein level of mutant huntingtin by Western blot analysis using an antibody against GFP (Ravikumar, B. et al., Nat Genet 2004, 36:585-595). On the other hand, ATG7 wild-type and ATG7-deficient MEF cells transfected with EGFP-HTT 74 were analyzed for the formation of huntingtin inclusion after 24 h of hederagenin or α-hederin treatment. Percentages of cells with cytoplasmic GFP-huntingtin (GFP-HTT74) inclusion formation were counted by the number of cells with GFP inclusions over the total number of GFP-positive cells in the same field under fluorescent microscopic analysis. […]

p-p70S6K = experiment: Western blot of p70S6K phosphorylation (downstream target of mTOR); assay type: cell-based; details: hederagenin 0-80 μM, α-hederin 0-24 μM, 24 h
Excerpt: (§1) Protein extraction and Western blots: Cells were harvested by RIPA lysis buffer (Cell Signaling Technologies, Beverly, Mass., USA), and with the final protein concentrations measured by using Bradford reagent (Bio-Rad, Hercules, Calif., USA). After electrophoresis for protein band separation, proteins were transferred to the nitrocellulose membrane which was blocked with 5% non-fat dried milk immediately after protein transfer. Corresponding primary antibodies, followed by the addition of HRP-conjugated secondary antibodies, were incubated with the protein membrane with constant shaking. Visualization of protein band pattern was performed by using the ECL Western Blotting Detection Reagents (Invitrogen, Paisley, Scotland). Band intensities were quantified by using the software, ImageJ (ImageJ 1.46r; National Institutes of Health, Bethesda, Md., USA).

LC3-II [3] = experiment: Western blot of LC3 conversion (LC3-II) in PC-12 cells; assay type: cell-based; details: for protein level of LC3-II with AMPK inhibitor compound C (CC): 60 μM hederagenin or 18 μM α-hederin with 5 μM CC; for protein level of LC3-II with addition of 3-MA: 60 μM hederagenin or 18 μM α-hederin with 5 mM 3-MA; for rate of LC3-II formation with lysosomal protease inhibitors (autophagic flux): 60 μM hederagenin or 18 μM α-hederin with E64d and pepstatin A (10 μg/mL), compared with compounds alone; for protein level of LC3-II: PC-12 cells, various durations and concentrations
[4] = test system: PC-12 cells treated with 0.5 mM MPTP; experiment: Rescue from MPTP-induced cell death in PC-12 cells (MTT, Annexin V flow cytometry); assay type: cell-based; details: cell density, MTT assay and flow cytometry
Description: Cytotoxicity Assays and Flow Cytometry: Cell viability was measured by using the MTT method (3-[4,5-dimethylthiazol-2-yl]-2,5-diphenyl tetrazolium bromide) as described previously (Wu, A. G. et al. Int J Mol Sci 2013, 14:22618-22641). Absorbance (OD) of cell samples was obtained by spectrophotometer at 570 nm. The percentage of cell viability was calculated by using the formula: cell viability (%)=cells numbertreated/cells numberDMSO control×100. All MTT data were calculated from three independent experiments. Cell viability was also measured by flow cytometry using the Annexin V staining kit (BD Biosciences, San Jose, Calif., USA). In brief, PC-12 cells treated with hederagenin and α-hederin were analyzed by multiparametric flow cytometry using FITC-Annexin V and/or propidium iodide staining (BD Biosciences, San Jose, Calif., USA) by following manufacturer's instructions. Flow cytometry was then carried out using a FACSCalibur flow cytometer (BD Biosciences). Data acquisition and analysis were performed with CellQuest (BD Biosciences).

[5] = test system: GFP-LC3 transfected Atg7+/+ and Atg7−/− MEFs; experiment: GFP-LC3 puncta formation in ATG7 wild-type and ATG7 deficient MEFs; assay type: cell-based, mouse; details: α-hederin 12 or 24 μM, hederagenin 40, 60 or 80 μM, 24 h
Description: Immunocytochemistry and fluorescence microscopy: In brief, GFP-LC3 puncta formation was analyzed as described previously (Wu, A. G. et al. Int J Mol Sci 2013, 14:22618-22641). Firstly, cells were plated on top of coverslips inside a 6-well culture dish. After compounds treatments, cells were fixed with 4% paraformaldehyde for 20 min. FluorSave™ mounting media (Calbiochem, San Diego, Calif., USA) was used to mount the coverslips with cells before subjected to fluorescence microscopic analysis. The number of GFP-positive cells, and cells with GFP-LC3 puncta formation was examined and counted under the Nikon ECLIPSE 80i microscope by using 40× of magnification. In order to standardize the quantitation, the percentage of cells with autophagy induction was defined by counting the number of cells with punctate GFP-LC3 fluorescence in GFP-positive cells. A minimum of 1000 GFP-positive cells from 3 randomly selected fields were scored.

myc-tagged-A53T-α-syn = assay type: cell-based; details: PC-12 cells after 1 μg/ml Dox induction; hederagenin 40 or 60 μM, α-hederin 12 or 24 μM
Excerpt: as §1

LC3-II [6] = experiment: Western blot of LC3-II in ATG7+/+ and ATG7−/− MEFs; assay type: cell-based, mouse; details: 24 h
Excerpt: as §1

p-AMPK = experiment: Western blot of AMPK phosphorylation; assay type: cell-based; details: hederagenin 0-80 μM, α-hederin 0-24 μM, 24 h
Excerpt: as §1

[7] = test system: α-synuclein oligomerization; experiment: Bimolecular fluorescence complementation (BiFC) assay of α-synuclein oligomerization in HeLa cells; assay type: cell-based; details: for oligomerization of α-syn (GFP fluorescence intensity): transfected HeLa cells, hederagenin 40 or 80 μM, α-hederin 12 or 24 μM, 24 h
Description: Bimolecular Fluorescence Complementation (BiFC) Assay: Both (1) non-fluorescent GFP-N terminal (GFP-N-α-syn), or (2) non-fluorescent GFP-C terminal (GFP-C-α-syn) plasmids were generous gifts from Pamela J. McLean (Department of Neuroscience, Mayo Clinic Florida, Jacksonville, Fla., USA). HeLa cells transfected with both GFP-N-α-syn and GFP-C-α-syn plasmids were incubated at 37° C. for 4 h. Cells were then subjected to different concentration of hederagenin or α-hederin treatments for a further 24 h in a humidified incubator at […] (Outeiro, T. F. et al., PLoS One 2008, 3:e1867). Green fluorescent signal which indicates the reconstitution of complete GFP proteins was detected by flow analysis (BD FACSAria III, San Jose, Calif., USA).

## CC1(C)CC[C@]2(C(=O)O)CC[C@]3(C)C(=CC[C@@H]4[C@@]5(C)CC[C@H](O)[C@@](C)(CO)[C@@H]5CC[C@]43C)[C@@H]2C1 [hederagenin]
[1]
  percentage of cells with GFP-LC3 puncta formation with addition of 3-MA: decreases the rate of autophagy
  formation of GFP-LC3 puncta with AMPK inhibitor compound C (CC): significant reduction
  formation of fluorescent LC3 II puncta: increased formation of fluorescent LC3 II puncta
[2]
  clearance of overexpressed huntingtin in PC-12 cells: facilitate the clearance of overexpressed huntingtin
p-p70S6K
  phosphorylation of p70S6K: reduced phosphorylation of p70S6K
LC3-II [3]
  protein level of LC3-II with AMPK inhibitor compound C (CC): significant reduction in protein level of LC3-II
  protein level of LC3-II with addition of 3-MA: decreased protein level of LC3-II
  rate of LC3-II formation with lysosomal protease inhibitors (autophagic flux): significantly increase the rate of LC3-II formation
  protein level of LC3-II: increase in the protein level of LC3-II via a dose- and time-dependent manner
[4]
  rescue from MPTP-induced cell death: rescue cells from MPTP-induced cell death
[5]
  GFP-LC3-II puncta formation in ATG7-wild type MEFs: significantly increase the GFP-LC3-II puncta formation
myc-tagged-A53T-α-syn
  clearance of overexpressed mutant A53T α-syn: facilitate the clearance of the overexpressed mutant α-
LC3-II [6]
  protein expression of LC3-II in ATG7+/+ MEFs: significant increased protein expression of LC3-II
p-AMPK
  phosphorylation of AMPK: increased phosphorylation of AMPK
[7]; BiFC assay, HeLa cells
  inhibition of α-syn oligomerization relative to α-hederin: more potent in the inhibition
[7]
  oligomerization of α-syn (GFP fluorescence intensity): inhibit the oligomerization of α-syn

## C[C@@H]1O[C@@H](O[C@H]2[C@H](O[C@H]3CC[C@@]4(C)[C@@H](CC[C@]5(C)[C@@H]4CC=C4[C@@H]6CC(C)(C)CC[C@]6(C(=O)O)CC[C@]45C)[C@]3(C)CO)OC[C@H](O)[C@@H]2O)[C@H](O)[C@H](O)[C@H]1O [α-hederin]
[1]
  percentage of cells with GFP-LC3 puncta formation with addition of 3-MA: decreases the rate of autophagy
  formation of GFP-LC3 puncta with AMPK inhibitor compound C (CC): significant reduction
  formation of fluorescent LC3 II puncta: increased formation of fluorescent LC3 II puncta
[2]
  clearance of overexpressed huntingtin in PC-12 cells: facilitate the clearance of overexpressed huntingtin
p-p70S6K
  phosphorylation of p70S6K: reduced phosphorylation of p70S6K
LC3-II [3]
  protein level of LC3-II with AMPK inhibitor compound C (CC): significant reduction in protein level of LC3-II
  protein level of LC3-II with addition of 3-MA: decreased protein level of LC3-II
  rate of LC3-II formation with lysosomal protease inhibitors (autophagic flux): significantly increase the rate of LC3-II formation
  protein level of LC3-II: increase in the protein level of LC3-II via a dose- and time-dependent manner
[4]
  rescue from MPTP-induced cell death: rescue cells from MPTP-induced cell death
[5]
  GFP-LC3-II puncta formation in ATG7-wild type MEFs: significantly increase the GFP-LC3-II puncta formation
myc-tagged-A53T-α-syn
  clearance of overexpressed mutant A53T α-syn: facilitate the clearance of the overexpressed mutant α-
LC3-II [6]
  protein expression of LC3-II in ATG7+/+ MEFs: significant increased protein expression of LC3-II
p-AMPK
  phosphorylation of AMPK: increased phosphorylation of AMPK
[7]
  oligomerization of α-syn (GFP fluorescence intensity): inhibit the oligomerization of α-syn
